We go through 6 compounds from patent US7683065B2, “Pyridines useful as modulators of ion channels” (Vertex Pharmaceuticals Incorporated, priority 2005, dated 2010).

The IC50 is the midpoint of a concentration-inhibition curve.

Read-outs that look alike come from different tables or passages of the source. Some results are limits rather than exact numbers.

Experiment [1] deals with T1, NaV1.8 (Homo sapiens, UniProt Q9Y5Y9). Briefly: Activity against NaV 1.8 channel (NaV inhibition assays, Table 4). The experiment is classed as cell-based. The procedure:
Compounds of the invention are useful as antagonists of voltage-gated sodium ion channels. Antagonist properties of test compounds were assessed as follows. Cells expressing the NaV of interest were placed into microtiter plates. After an incubation period, the cells were stained with fluorescent dyes sensitive to the transmembrane potential. The test compounds were added to the microtiter plate. The cells were stimulated with either a chemical or electrical means to evoke a NaV dependent membrane potential change from unblocked channels, which was detected and measured with trans-membrane potential-sensitive dyes. Antagonists were detected as a decreased membrane potential response to the stimulus. The optical membrane potential assay utilized voltage-sensitive FRET sensors described by Gonzalez and Tsien (See Gonzalez, J. E. and R. Y. Tsien (1995) “Voltage sensing by fluorescence resonance energy transfer in single cells” Biophys J 69(4): 1272-80, and Gonzalez, J. E. and R. Y. Tsien (1997) “Improved indicators of cell membrane potential that use fluorescence resonance energy transfer” Chem Biol 4(4): 269-77) in combination with instrumentation for measuring fluorescence changes such as the Voltage/Ion Probe Reader (VIPR®) (See, Gonzalez, J. E., K. Oades, et al. (1999) “Cell-based assays and instrumentation for screening ion-channel targets” Drug Discov Today 4(9): 431439).
24 hours before the assay on VIPR, CHO cells endogenously expressing a NaV1.2 type voltage-gated NaV are seeded in 96-well poly-lysine coated plates at 60,000 cells per well. Other subtypes are performed in an analogous mode in a cell line expressing the NaV of interest. • 1) On the day of the assay, medium is aspirated and cells are washed twice with 225 μL of Bath Solution #2 (BS#2). • 2) A 15 uM CC2-DMPE solution is prepared by mixing 5 mM coumarin stock solution with 10% Pluronic 127 1:1 and then dissolving the mix in the appropriate volume of BS#2. • 3) After bath solution is removed from the 96-well plates, the cells are loaded with 80 μL of the CC2-DMPE solution. Plates are incubated in the dark for 30 minutes at room temperature. • 4) While the cells are being stained with coumarin, a […] oxonol solution in BS#2 is prepared. In addition to DiSBAC2(3), this solution should contain 0.75 mM ABSC1 and […] veratridine (prepared from 10 mM EtOH stock, Sigma #V-5754). • 5) After 30 minutes, CC2-DMPE is removed and the cells are washed twice with 225 μL of BS#2. […] The cells are then incubated for 20-30 minutes. • 7) Once the incubation is complete, the cells are ready to be assayed on VIPR® with a sodium addback protocol. […]
The following is an example of how NaV1.3 inhibition activity is measured using the optical membrane potential method#2. […]

For the next experiment, the system named is neuropathic pain. The following applies: in vivo; cited from earlier work.
In the next experiment the target is NaV1.3 (Homo sapiens, UniProt Q9NY46). The following applies: read-out: TTX IC50; cited from earlier work.
NaV1.3, sequence (Q9NY46 whole entry, looked up): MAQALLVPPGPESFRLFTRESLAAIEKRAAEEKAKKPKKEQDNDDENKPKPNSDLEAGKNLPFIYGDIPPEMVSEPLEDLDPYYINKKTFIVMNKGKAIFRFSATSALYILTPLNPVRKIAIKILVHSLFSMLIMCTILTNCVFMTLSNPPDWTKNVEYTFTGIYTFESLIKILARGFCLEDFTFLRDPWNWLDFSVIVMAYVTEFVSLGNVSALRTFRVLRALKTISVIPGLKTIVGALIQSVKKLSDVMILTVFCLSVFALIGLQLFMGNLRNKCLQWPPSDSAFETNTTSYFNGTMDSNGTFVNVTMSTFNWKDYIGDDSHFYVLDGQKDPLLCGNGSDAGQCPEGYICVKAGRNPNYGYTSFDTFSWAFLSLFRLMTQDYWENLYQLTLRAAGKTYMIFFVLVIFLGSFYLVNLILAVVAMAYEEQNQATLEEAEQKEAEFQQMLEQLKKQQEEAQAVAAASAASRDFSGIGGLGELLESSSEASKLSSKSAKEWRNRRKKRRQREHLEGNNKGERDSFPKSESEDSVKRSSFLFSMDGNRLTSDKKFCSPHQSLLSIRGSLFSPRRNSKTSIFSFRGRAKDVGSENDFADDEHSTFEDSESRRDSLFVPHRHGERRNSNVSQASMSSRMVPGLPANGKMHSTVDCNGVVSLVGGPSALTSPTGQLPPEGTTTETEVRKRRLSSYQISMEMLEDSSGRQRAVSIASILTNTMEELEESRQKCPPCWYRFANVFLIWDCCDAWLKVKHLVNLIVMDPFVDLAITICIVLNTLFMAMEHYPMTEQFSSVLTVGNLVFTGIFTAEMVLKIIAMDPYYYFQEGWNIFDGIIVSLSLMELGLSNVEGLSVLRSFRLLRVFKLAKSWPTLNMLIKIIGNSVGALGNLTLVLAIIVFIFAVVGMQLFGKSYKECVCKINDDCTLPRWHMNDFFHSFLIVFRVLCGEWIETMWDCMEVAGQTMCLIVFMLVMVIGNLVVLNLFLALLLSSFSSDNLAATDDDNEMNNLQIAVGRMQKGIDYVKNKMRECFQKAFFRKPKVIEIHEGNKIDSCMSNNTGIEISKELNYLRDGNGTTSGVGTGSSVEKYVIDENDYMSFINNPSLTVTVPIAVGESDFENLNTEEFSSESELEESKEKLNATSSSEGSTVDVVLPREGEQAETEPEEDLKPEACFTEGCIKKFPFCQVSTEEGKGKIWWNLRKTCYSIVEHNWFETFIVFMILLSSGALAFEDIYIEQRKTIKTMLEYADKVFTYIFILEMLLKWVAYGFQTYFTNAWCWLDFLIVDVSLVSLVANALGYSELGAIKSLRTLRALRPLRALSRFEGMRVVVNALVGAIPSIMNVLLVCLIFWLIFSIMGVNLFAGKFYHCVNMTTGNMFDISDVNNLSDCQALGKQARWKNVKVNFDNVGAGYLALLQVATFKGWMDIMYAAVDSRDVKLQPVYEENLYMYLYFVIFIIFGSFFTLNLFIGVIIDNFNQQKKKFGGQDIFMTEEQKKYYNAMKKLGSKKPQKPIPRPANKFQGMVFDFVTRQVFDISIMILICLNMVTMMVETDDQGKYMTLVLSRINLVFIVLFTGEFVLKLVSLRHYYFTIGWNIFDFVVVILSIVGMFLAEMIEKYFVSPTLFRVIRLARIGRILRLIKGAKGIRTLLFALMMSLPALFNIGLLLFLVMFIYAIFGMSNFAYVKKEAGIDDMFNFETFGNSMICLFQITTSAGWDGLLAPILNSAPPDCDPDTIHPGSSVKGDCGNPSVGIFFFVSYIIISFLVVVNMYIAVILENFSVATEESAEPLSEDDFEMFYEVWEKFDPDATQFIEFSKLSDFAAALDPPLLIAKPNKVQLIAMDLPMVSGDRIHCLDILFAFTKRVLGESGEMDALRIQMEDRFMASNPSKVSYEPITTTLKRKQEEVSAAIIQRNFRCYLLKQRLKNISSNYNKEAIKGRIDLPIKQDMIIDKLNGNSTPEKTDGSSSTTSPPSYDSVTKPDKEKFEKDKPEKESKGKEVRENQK
Experiment [2] has as its target T1, NaV1.8. The following applies: read-out: TTX IC50; cited from earlier work.

T1 sequence (Q9Y5Y9 whole entry, looked up): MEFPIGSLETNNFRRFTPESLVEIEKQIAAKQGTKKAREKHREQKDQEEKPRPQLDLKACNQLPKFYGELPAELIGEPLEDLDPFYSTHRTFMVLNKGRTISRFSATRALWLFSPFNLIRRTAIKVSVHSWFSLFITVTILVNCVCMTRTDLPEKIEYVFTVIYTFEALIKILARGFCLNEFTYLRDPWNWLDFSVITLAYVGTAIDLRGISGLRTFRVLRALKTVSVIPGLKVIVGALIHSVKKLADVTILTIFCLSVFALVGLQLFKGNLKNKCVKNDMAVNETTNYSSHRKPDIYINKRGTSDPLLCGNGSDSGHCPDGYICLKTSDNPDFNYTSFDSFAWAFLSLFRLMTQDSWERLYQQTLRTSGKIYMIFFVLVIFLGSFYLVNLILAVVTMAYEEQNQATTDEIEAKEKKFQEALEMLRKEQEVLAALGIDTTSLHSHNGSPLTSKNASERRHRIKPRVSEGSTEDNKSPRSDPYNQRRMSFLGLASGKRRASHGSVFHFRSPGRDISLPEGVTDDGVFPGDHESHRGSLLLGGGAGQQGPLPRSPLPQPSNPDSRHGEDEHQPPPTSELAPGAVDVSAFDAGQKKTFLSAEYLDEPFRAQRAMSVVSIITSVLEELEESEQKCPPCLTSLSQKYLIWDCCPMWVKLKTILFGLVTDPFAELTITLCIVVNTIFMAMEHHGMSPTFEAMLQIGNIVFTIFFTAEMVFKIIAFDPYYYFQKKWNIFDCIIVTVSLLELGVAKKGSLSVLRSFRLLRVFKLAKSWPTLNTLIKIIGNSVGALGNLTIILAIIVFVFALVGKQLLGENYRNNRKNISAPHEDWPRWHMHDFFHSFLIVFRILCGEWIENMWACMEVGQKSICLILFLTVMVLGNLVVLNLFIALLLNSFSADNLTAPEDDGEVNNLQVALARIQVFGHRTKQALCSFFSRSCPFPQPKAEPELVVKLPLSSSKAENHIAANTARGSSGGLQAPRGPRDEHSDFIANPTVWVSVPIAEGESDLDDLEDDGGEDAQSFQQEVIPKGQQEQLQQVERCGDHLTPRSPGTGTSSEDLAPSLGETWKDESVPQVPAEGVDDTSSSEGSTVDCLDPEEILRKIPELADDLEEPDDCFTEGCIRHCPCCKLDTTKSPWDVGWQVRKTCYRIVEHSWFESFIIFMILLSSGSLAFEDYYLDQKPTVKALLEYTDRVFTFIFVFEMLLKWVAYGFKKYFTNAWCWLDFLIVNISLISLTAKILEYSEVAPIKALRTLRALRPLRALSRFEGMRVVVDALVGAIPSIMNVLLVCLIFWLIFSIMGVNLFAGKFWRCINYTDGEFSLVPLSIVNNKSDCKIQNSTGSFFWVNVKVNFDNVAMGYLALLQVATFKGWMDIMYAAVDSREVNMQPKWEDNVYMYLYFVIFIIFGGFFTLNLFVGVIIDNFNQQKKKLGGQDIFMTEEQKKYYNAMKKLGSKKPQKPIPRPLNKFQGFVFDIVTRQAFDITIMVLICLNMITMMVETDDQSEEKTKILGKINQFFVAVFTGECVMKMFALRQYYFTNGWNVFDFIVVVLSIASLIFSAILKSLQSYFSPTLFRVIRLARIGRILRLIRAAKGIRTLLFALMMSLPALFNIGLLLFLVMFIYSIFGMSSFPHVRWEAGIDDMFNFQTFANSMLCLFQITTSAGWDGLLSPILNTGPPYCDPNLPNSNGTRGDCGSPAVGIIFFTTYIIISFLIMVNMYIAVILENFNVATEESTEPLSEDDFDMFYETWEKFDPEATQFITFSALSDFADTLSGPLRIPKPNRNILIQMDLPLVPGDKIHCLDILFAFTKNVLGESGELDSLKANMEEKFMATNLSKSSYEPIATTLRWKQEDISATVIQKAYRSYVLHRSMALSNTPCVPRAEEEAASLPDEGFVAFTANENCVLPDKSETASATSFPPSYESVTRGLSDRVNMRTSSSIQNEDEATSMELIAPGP

In the case of `CC(C)COC(=O)N1CCN(c2ccnc(-c3ccccc3O)c2)CC1` [Compound 1, Isobutyl 4-(2-(2-hydroxyphenyl)pyridin-4-yl)piperazine-1-carboxylate], the IC50 on NaV1.8 [1] is over 15 µM.

Regarding `CC(C)COC(=O)N1CCN(c2cccc(-c3ccccc3O)n2)CC1` [Compound 3, 4-[6-(2-hydroxyphenyl)-2-pyridyl]piperazine-1-carboxylic acid isobutyl ester], the IC50 at NaV1.8 [1] fell in the range of 10 to 15 µM.

Regarding `CC(C)C[C@@H](O)C(=O)N1CCN(c2cccc(-c3ccccc3O)n2)CC1` [Compound 4, (R)-2-hydroxy-1-(4-(6-(2-hydroxyphenyl)pyridin-2-yl)piperazin-1-yl)-4-methylpentan-1-one], the IC50 on NaV1.8 [1] was under 10 µM.

`CC(C)COC(=O)N1CCN(c2cc(-c3ccccc3O)ccn2)CC1` [Compound 5, Isobutyl-4-[4′-(2-hydroxyphenyl)-pyridin-2′-yl]-piperazine-1-carboxylate]: the concentration for half-maximal inhibition (IC50) on NaV1.8 [1] was over 15 µM.

Regarding `NCC1(CC(=O)O)CCCCC1` [Gabapentin], in the experiment with neuropathic pain, the “share of patients in whom it works” value was 60%.

In the case of `NC1=N[C@H](O)[C@H]2[C@H]3O[C@]4(O)O[C@@H]([C@@H](O)[C@@]2(N1)[C@@H]4O)[C@]3(O)CO` [TTX, tetrodotoxin], the half-maximal inhibitory concentration (IC50) was 0.015 µM on NaV1.3 and over 50 µM on NaV1.8 [2].
